Test results published in patent US11149031B2, “Substituted N-(3-fluoropropyl)-pyrrolidine compounds, processes for their preparation and therapeutic uses thereof” (SANOFI, priority 2016, dated 2021).

Experiments:
[1] = molecular target: ERα in MCF7 cells (Homo sapiens (Human), UniProt P03372); test: Test C: estrogen receptor degradation activity, ERα in cell western assay in MCF7 cells; format: cell-based; conditions: for DC50: 4 hours post compound addition, ERα in cell western, read-out: Degradation IC50; for % Degradation at 3 μM: 4 hours, relative to fulvestrant
Description: Test C: Estrogen Receptor Degradation Activity
Test C involves measuring the in vitro degradation activity of the compounds of the invention.
The measurements of the degradation activities were made using abreast cancer cell ERα in cell western assay as described hereunder.
MCF7 cells (ATCC) were seeded in 384 wells microplate (collagen coated) at concentration of >9990 cells/30 μL per well in red phenol free MEM alpha medium (invitrogen) containing 5% charcoal dextran striped FBS. The following day, 9 points serial 1:5 dilution of each compound were added to the cells in 2.5 μL at final concentrations ranging from 3-0.000018 μM or 0.1 μM for fulvestrant (using as positive control). At 4 hours post compounds addition the cells were fixed by adding 25 μL of formalin (final concentration 5% formalin containing 0.1% triton) for 10 minutes at room temperature and then washed twice with PBS. Then, 50 μL of LI-COR blocking buffer containing 0.1% Triton was added to plate for 30 minutes at room temperature. LI-COR blocking buffer was removed and cells were incubated overnight at cold room with 50 μL anti-ER rabbit monoclonal antibody (Thermo scientific MA1-39540) diluted at 1:>999 in LI-COR blocking buffer containing 0.1% tween-20. Wells which were treated with blocking but no antibody were used as background control. Wells were washed twice with PBS (0.1% tween-20) and incubated at 37° C. for 60 minutes in LI-COR (0.1% tween-20) containing goat anti-rabbit antibody Alexa 488 (1:>999) and Syto-64 a DNA dye (2 μM final concentration). Cells were then washed 3 times in PBS and scanned in ACUMEN explorer (TTP-Labtech). Integrated intensities in the green fluorescence and red fluorescence were measured to determine the levels of ERα and DNA respectively.

[2] = molecular target: His6-ERα298-554 WT (ERα ligand-binding domain) (Homo sapiens (Human), UniProt P03372); test: Test A: biochemical antagonist activity, LanthaScreen TR-FRET ERα coactivator assay, WT; conditions: protocol with 3 nM estradiol; read-out: Antagonism WT IC50
Description: (§1) Test A: Biochemical Antagonist Activity on Wild Type (WT) and Mutants
(§2) Estrogen Receptors Test A involves measuring the in vitro antagonist activity of the compounds of the invention on estrogen receptors.
(§3) The measurements of the antagonist activities were made using an estrogen receptor coactivator assay as described hereunder.
(§4) Antagonistic potency of compounds was evaluated using LanthaScreen® TR-FRET ERα Coactivator Assay (ThermoFisher) with modifications. […] The assay works in a homogeneous mix-and-read format. In a typical experiment, a 4 μL mixture of 0.5 nM His6-ERα298-554, 0.5 nM Tb-labeled His6 antibody, 250 nM PGC1a peptide, and 3 nM estradiol (or 10 nM estradiol) in 100 mM potassium phosphate, pH 7.4, 0.01% Tween-20, 0.02% NaN3, 5 mM DTT, was added to 40 nL test compound in DMSO and incubated overnight at room temperature. The TR-FRET 520:495 nm emission ratio was calculated and used to determine the IC50 value from a dose response curve fit to the 4-parameter logistic equation.

[3] = molecular target: His6-ERα298-554 D538G mutant (ERα ligand-binding domain) (Homo sapiens (Human), UniProt P03372, D538G); test: Test A: biochemical antagonist activity, LanthaScreen TR-FRET ERα coactivator assay, D538G mutant; conditions: protocol with 3 nM estradiol; read-out: Antagonism D538G IC50
Description: as §1, §2, §3, §4

[4] = molecular target: His6-ERα298-554 Y537S mutant (ERα ligand-binding domain) (Homo sapiens (Human), UniProt P03372, Y537S); test: Test A: biochemical antagonist activity, LanthaScreen TR-FRET ERα coactivator assay, Y537S mutant; conditions: protocol with 3 nM estradiol; read-out: Antagonism Y537S IC50
Description: as §1, §2, §3, §4

Sequence of His6-ERα298-554 WT (ERα ligand-binding domain) (P03372 298-554): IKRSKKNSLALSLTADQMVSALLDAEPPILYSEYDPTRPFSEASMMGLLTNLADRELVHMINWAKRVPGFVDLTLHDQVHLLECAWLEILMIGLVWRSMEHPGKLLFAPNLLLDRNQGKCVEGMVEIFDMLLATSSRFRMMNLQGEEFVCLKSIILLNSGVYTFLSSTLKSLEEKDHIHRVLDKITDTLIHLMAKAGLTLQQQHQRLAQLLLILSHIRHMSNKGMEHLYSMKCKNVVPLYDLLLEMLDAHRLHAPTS
Sequence of ERα in MCF7 cells (P03372 whole entry): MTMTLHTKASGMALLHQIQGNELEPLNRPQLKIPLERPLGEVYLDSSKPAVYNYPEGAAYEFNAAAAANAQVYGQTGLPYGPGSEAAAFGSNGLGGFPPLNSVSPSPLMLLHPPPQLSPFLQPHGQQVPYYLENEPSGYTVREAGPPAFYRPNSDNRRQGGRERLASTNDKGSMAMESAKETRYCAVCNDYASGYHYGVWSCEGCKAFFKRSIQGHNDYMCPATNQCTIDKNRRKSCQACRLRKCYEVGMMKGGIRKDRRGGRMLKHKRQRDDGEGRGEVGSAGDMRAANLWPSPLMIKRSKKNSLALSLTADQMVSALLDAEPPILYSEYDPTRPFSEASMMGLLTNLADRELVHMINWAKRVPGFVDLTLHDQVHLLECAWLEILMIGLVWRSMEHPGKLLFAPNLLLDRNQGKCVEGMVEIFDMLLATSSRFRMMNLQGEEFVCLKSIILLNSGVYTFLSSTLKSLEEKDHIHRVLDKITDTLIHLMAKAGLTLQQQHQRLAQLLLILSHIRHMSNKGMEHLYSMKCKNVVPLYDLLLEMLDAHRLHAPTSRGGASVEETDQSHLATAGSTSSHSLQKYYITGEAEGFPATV
Sequence of His6-ERα298-554 Y537S mutant (ERα ligand-binding domain) (P03372 298-554 Y537S): as the sequence (P03372 298-554) above, with Y240S counted along it
Sequence of His6-ERα298-554 D538G mutant (ERα ligand-binding domain) (P03372 298-554 D538G): as the sequence (P03372 298-554) above, with D241G counted along it

SMILES | DC50 [1] [nM] | % Degradation at 3 μM [1] [%] | IC50 [2] [nM] | IC50 [3] [nM] | IC50 [4] [nM]
Cc1c(Cl)cccc1C1=C(c2ccc(O[C@H]3CCN(CCCF)C3)cc2)c2ccc(O)cc2OCC1 [Example 101, 4-(3-chloro-2-methyl-phenyl)-5-[4-[(3S)-1-(3-fluoropropyl)pyrrolidin-3-yl]oxyphenyl]-2,3-dihydro-1-benzoxepin-8-ol] | 0.6 | 92 | 6 | 50 | 25
Oc1ccc2c(c1)OCCC(c1ccc3c(c1)CCN3)=C2c1ccc(O[C@H]2CCN(CCCF)C2)cc1 [Example 104, 5-[4-[(3S)-1-(3-fluoropropyl)pyrrolidin-3-yl]oxyphenyl]-4-indolin-5-yl-2,3-dihydro-1-benzoxepin-8-ol] | 0.2 | 88 | 12 | 54 | 23
Cc1ccc(C2=C(c3ccc(O[C@H]4CCN(CCCF)C4)cc3)c3ccc(O)c(Cl)c3OCC2)c(F)c1 [Example 108, 9-chloro-4-(2-fluoro-4-methyl-phenyl)-5-[4-[(3S)-1-(3-fluoropropyl)pyrrolidin-3-yl]oxyphenyl]-2,3-dihydro-1-benzoxepin-8-ol] | 3 | 86 | 30 | 221 | 129
Cc1c(Cl)cccc1C1=C(c2ccc(O[C@H]3CCN(CCCF)C3)cc2)c2ccc(O)c(Cl)c2OCC1 [Example 109, 9-chloro-4-(3-chloro-2-methyl-phenyl)-5-[4-[(3S)-1-(3-fluoropropyl)pyrrolidin-3-yl]oxyphenyl]-2,3-dihydro-1-benzoxepin-8-ol] | 1 | 90 | 29 | 215 | 150
Cc1ccc(C2=C(c3ccc(O[C@H]4CCN(CCCF)C4)cc3)c3ccc(O)c(C)c3OCC2)c(F)c1 [Example 111, 4-(2-fluoro-4-methyl-phenyl)-5-[4-[(3S)-1-(3-fluoropropyl)pyrrolidin-3-yl]oxyphenyl]-9-methyl-2,3-dihydro-1-benzoxepin-8-ol] | 6 | 86 | 91 | 822 | 407
Cc1c(Cl)cccc1C1=C(c2ccc(O[C@H]3CCN(CCCF)C3)cc2)c2ccc(O)c(C)c2OCC1 [Example 112, 4-(3-chloro-2-methyl-phenyl)-5-[4-[(3S)-1-(3-fluoropropyl)pyrrolidin-3-yl]oxyphenyl]-9-methyl-2,3-dihydro-1-benzoxepin-8-ol] | 4 | 87 | 91 | 838 | 543
Oc1ccc2c(c1Cl)OCCC(c1ccc3[nH]ccc3c1)=C2c1ccc(O[C@H]2CCN(CCCF)C2)cc1 [Example 114, 9-chloro-5-[4-[(3S)-1-(3-fluoropropyl)pyrrolidin-3-yl]oxyphenyl]-4-(1H-indol-5-yl)-2,3-dihydro-1-benzoxepin-8-ol] | 5 | 71 | 29 | 178 | 104
Oc1ccc2c(c1Cl)OCCC(c1ccc3c(c1)CCN3)=C2c1ccc(O[C@H]2CCN(CCCF)C2)cc1 [Example 115, 9-chloro-5-[4-[(3S)-1-(3-fluoropropyl)pyrrolidin-3-yl]oxyphenyl]-4-indolin-5-yl-2,3-dihydro-1-benzoxepin-8-ol] | 6 | 77 | 88 | 322 | 200
Oc1ccc2c(c1)OCCC(c1cccc3c1CCN3)=C2c1ccc(O[C@H]2CCN(CCCF)C2)cc1 [Example 117, 5-[4-[(3S)-1-(3-fluoropropyl)pyrrolidin-3-yl]oxyphenyl]-4-indolin-4-yl-2,3-dihydro-1-benzoxepin-8-ol] | 3 | 92 | 32 | 309 | 214
Cc1c(O)ccc2c1OCCC(c1ccc3c(c1)CCN3)=C2c1ccc(O[C@H]2CCN(CCCF)C2)cc1 [Example 118, 5-[4-[(3S)-1-(3-fluoropropyl)pyrrolidin-3-yl]oxyphenyl]-4-indolin-5-yl-9-methyl-2,3-dihydro-1-benzoxepin-8-ol] | 126 | 74 | 152 | 442 | 237
Cc1cccc(C2=C(c3ccc(O[C@H]4CCN(CCCF)C4)cc3)c3ccc(O)cc3OCC2)c1C [Example 122, 4-(2,3-dimethylphenyl)-5-[4-[(3S)-1-(3-fluoropropyl)pyrrolidin-3-yl]oxyphenyl]-2,3-dihydro-1-benzoxepin-8-ol] | 0.3 | 91 | 3 | 41 | 24
Oc1ccc2c(c1Cl)OCCC(c1ccc3cc[nH]c3c1)=C2c1ccc(O[C@H]2CCN(CCCF)C2)cc1 [Example 123, 9-chloro-5-[4-[(3S)-1-(3-fluoropropyl)pyrrolidin-3-yl]oxyphenyl]-4-(1H-indol-6-yl)-2,3-dihydro-1-benzoxepin-8-ol] | 15 | 81 | 156 | 2290 | 1430
Oc1ccc2c(c1Cl)OCCC(c1ccc3c(c1)NCC3)=C2c1ccc(O[C@H]2CCN(CCCF)C2)cc1 [Example 125, 9-chloro-5-[4-[(3S)-1-(3-fluoropropyl)pyrrolidin-3-yl]oxyphenyl]-4-indolin-6-yl-2,3-dihydro-1-benzoxepin-8-ol] | 4 | 84 | 190 | 1340 | 945
Cc1c(F)cccc1C1=C(c2ccc(O[C@H]3CCN(CCCF)C3)cc2)c2ccc(O)cc2OCC1 [Example 126, 4-(3-fluoro-2-methyl-phenyl)-5-[4-[(3S)-1-(3-fluoropropyl)pyrrolidin-3-yl]oxyphenyl]-2,3-dihydro-1-benzoxepin-8-ol] | 0.3 | 91 | 5 | 94 | 55
CCOc1ccc(C2=C(c3ccc(O[C@H]4CCN(CCCF)C4)cc3)c3ccc(O)cc3OCC2)cn1 [Example 127, 4-(6-ethoxy-3-pyridyl)-5-[4-[(3S)-1-(3-fluoropropyl)pyrrolidin-3-yl]oxyphenyl]-2,3-dihydro-1-benzoxepin-8-ol] | 0.8 | 90 | 3 | 49 | 24
Oc1ccc2c(c1Cl)OCCC(c1cccc3c1CCN3)=C2c1ccc(O[C@H]2CCN(CCCF)C2)cc1 [Example 128, 9-chloro-5-[4-[(3S)-1-(3-fluoropropyl)pyrrolidin-3-yl]oxyphenyl]-4-indolin-4-yl-2,3-dihydro-1-benzoxepin-8-ol] | 14 | 72 | 96 | 1210 | 933
Cc1c(O)ccc2c1OCCC(c1cccc3[nH]ccc13)=C2c1ccc(O[C@H]2CCN(CCCF)C2)cc1 [Example 130, 5-[4-[(3S)-1-(3-fluoropropyl)pyrrolidin-3-yl]oxyphenyl]-4-(1H-indol-4-yl)-9-methyl-2,3-dihydro-1-benzoxepin-8-ol] | 18 | 73 | 70 | 1190 | 777
Oc1ccc2c(c1F)OCCC(c1ccc3cc[nH]c3c1)=C2c1ccc(O[C@H]2CCN(CCCF)C2)cc1 [Example 131, 9-fluoro-5-[4-[(3S)-1-(3-fluoropropyl)pyrrolidin-3-yl]oxyphenyl]-4-(1H-indol-6-yl)-2,3-dihydro-1-benzoxepin-8-ol] | 3 | 83 | 19 | 340 | 276
